The record followed here is patent US20240092770A1, “Heterocycle RMB39 Modulators” (Recursion Pharmaceuticals, Inc., priority 2022, published 2024).

The target in this assay is RBM39 and the DCAF15 complex (RBM39-Flag / His-DCAF15-DDA1-DDB1) (Homo sapiens (Human), UniProt Q14498+Q66K64). The assay is described as follows: DCAF15 RBM39 complex formation TR-FRET assay. To be noted: RBM39(R150-D331) 3xFlag 50 nM, His-DCAF15-DDA1-DDB1 10 nM, 60 min room temperature. The class given is binding. How it is done:
A TR-FRET assay was used to assess the effect of compounds disclosed herein on the interaction between RBM39 and the DCAF15 complex. Test compounds were dissolved to form a 10 mM DMSO stock solution. A 45 μL aliquot of the stock solution was transferred to a 384 pp-plate, and a threefold, 8-point dilution was performed via transferring 15 μL compound solution into 30 μL of DMSO. The plates were then spun at room temperature at 1,000 RPM for 1 minute.
A 30 nL aliquot of the diluted compound was transferred to a 384 well plate, which was incubated at room temperature for 15 minutes. Next, Solutions 1, 2, and 3 were prepared as described in the below tables. A 5 μL aliquot of Solution 2 was added to each well, followed by 5 μL of Solution 3 to start the reaction. The final volume of each well was 10 μL. The plates were incubated at room temperature for 60 minutes, and then read.
Next, an RBM39 (R150-D331) 3× Flag used in TR-FRET assay was prepared:
Recombinant RBM39 protein is composed of the R1R2 of RBM39 (aa 150 to 331; UniProt: Q14498). The coding sequence was sub-cloned into pGEX4T-1-RBM39-flag vector, expressed as a GST-fusion protein with N-terminal TEV protease cleavage site. A 3× Flag tag was added to the C-terminal of R1R2 used in a FRET assay.
In general terms: TR-FRET usually uses a lanthanide donor and a delayed reading to cut background.
For orientation: EC50 means the concentration needed to bring the measured effect to its halfway point. `CC(C)(C)c1cc(S(=O)(=O)Nc2cccc3c(C#N)c[nH]c23)on1` [Compound 104] displayed an EC50 of 128 nM.
In the case of `N#Cc1c[nH]c2c(NS(=O)(=O)c3csc(C(F)F)n3)cccc12` [Compound 105] it was 299 nM; in that of `N#Cc1c[nH]c2c(NS(=O)(=O)c3cnc(C4CC4)o3)cccc12` [Compound 107, N-(3-cyano-1H-indol-7-yl)-2-cyclopropyl-1,3-oxazole-5-sulfonamide], 325 nM.
Turning to `Cc1ncc(S(=O)(=O)Nc2cccc3c(C#N)c[nH]c23)o1` [Compound 108], the midpoint of the response, the EC50, lay at 1970 nM.
In the case of `Cc1nc(Br)sc1S(=O)(=O)Nc1cccc2c(C#N)c[nH]c12` [Compound 109] it was 2070 nM; in that of `CC(C)(C)c1ncc(S(=O)(=O)Nc2cccc3c(C#N)c[nH]c23)o1` [Compound 110], 729 nM; in that of `Cc1ccc(NS(=O)(=O)c2ncc(P(C)(C)=O)s2)c2[nH]cc(C#N)c12` [Compound 111, N-(3-cyano-4-methyl-1H-indol-7-yl)-5-(dimethylphosphoryl)thiazole-2-sulfonamide], 1630 nM.
`Cc1ccc(NS(=O)(=O)c2ncc(C(=O)N3CCOCC3)s2)c2[nH]cc(C#N)c12` [Compound 112] showed an EC50 of 1360 nM.
As to `N#Cc1c[nH]c2c(NS(=O)(=O)c3nccs3)ccc(F)c12` [Compound 114], the response was half-maximal at 3260 nM (EC50).
For the compound `N#Cc1c[nH]c2c(NS(=O)(=O)c3ncc(Cl)s3)cccc12` [Compound 116], the EC50 was found to be 2130 nM.
With `Cc1ccc(NS(=O)(=O)c2cnc(C(F)F)s2)c2[nH]cc(C#N)c12` [Compound 117], the EC50 turned out to be 99.6 nM.
In the case of `CCc1ncc(S(=O)(=O)Nc2ccc(C)c3c(C#N)c[nH]c23)o1` [Compound 118] it was 168 nM; in that of `N#Cc1c[nH]c2c(NS(=O)(=O)c3cnc(C(F)F)s3)cccc12` [Compound 120], 359 nM; in that of `CNC(=O)c1cnc(S(=O)(=O)Nc2ccc(C)c3c(C#N)c[nH]c23)s1` [Compound 126], 960 nM.
The result for `Cc1ccc(NS(=O)(=O)c2ncc(C(=O)N(C)C)s2)c2[nH]cc(C#N)c12` [Compound 127] reads 959 nM; that for `CCN(CC)C(=O)c1csc(S(=O)(=O)Nc2ccc(C)c3c(C#N)c[nH]c23)n1` [Compound 128], 650 nM.
The result for `Cc1ccc(NS(=O)(=O)c2ncc(C(=O)NCCO)s2)c2[nH]cc(C#N)c12` [Compound 129] reads 1820 nM; that for `Cc1ccc(NS(=O)(=O)c2ncc(C(=O)N3CCCC3)s2)c2[nH]cc(C#N)c12` [Compound 130], 1130 nM; that for `Cc1ccc(NS(=O)(=O)c2ncc(C(=O)N3CCN(C)CC3)s2)c2[nH]cc(C#N)c12` [Compound 131], 3800 nM.
In the case of `N#Cc1c[nH]c2c(NS(=O)(=O)c3nccs3)cc(F)cc12` [Compound 132], the EC50 was found to be 6650 nM.
The result for `O=S(=O)(Nc1cccc2c(Cl)c[nH]c12)c1nccs1` [Compound 133] reads 2670 nM.
In the case of `N#Cc1c[nH]c2c(NS(=O)(=O)c3nc(C(F)(F)F)cs3)cccc12` [Compound 134] it was 1760 nM.
The result for `Cc1ccc(NS(=O)(=O)c2cc(C(C)C)no2)c2[nH]cc(C#N)c12` [Compound 135] reads 47 nM.
For the compound `N#Cc1c[nH]c2c(NS(=O)(=O)c3cnc(Cl)s3)cccc12` [Compound 136], the EC50 came to 511 nM.
In the case of `CC(C)c1cc(S(=O)(=O)Nc2cccc3c(C#N)c[nH]c23)on1` [Compound 138] it was 423 nM.
Consider `CCc1nc(S(=O)(=O)Nc2ccc(C)c3c(C#N)c[nH]c23)cn1CC(=O)NC1CC1` [Compound 139], for which the response was half-maximal at 6070 nM (EC50).
The result for `CCc1nc(S(=O)(=O)Nc2ccc(C)c3c(C#N)c[nH]c23)cn1CC(=O)O` [Compound 140] reads 6620 nM; that for `Cc1ccc(NS(=O)(=O)c2ncc(C(N)=O)s2)c2[nH]cc(C#N)c12` [Compound 141], 919 nM.
Regarding `COCCNC(=O)c1cnc(S(=O)(=O)Nc2ccc(C)c3c(C#N)c[nH]c23)s1` [Compound 142], a half-maximal effect (EC50) was put at 1960 nM.
In the case of `Cc1ccc(NS(=O)(=O)c2ncc(C(=O)N3CCC(O)C3)s2)c2[nH]cc(C#N)c12` (stereo not drawn) [Compound 143] it was 2150 nM; in that of `Cc1ccc(NS(=O)(=O)c2ncc(C(=O)N3CCCCC3)s2)c2[nH]cc(C#N)c12` [Compound 144], 1560 nM; in that of `CCc1nc(S(=O)(=O)Nc2ccc(F)c3c(Cl)c[nH]c23)c[nH]1` [Compound 146], 505 nM.
`CCc1nc(S(=O)(=O)Nc2ccc(F)c3c(C#N)c[nH]c23)c[nH]1` [Compound 147] yielded an EC50 of 2030 nM.
Compound `N#Cc1c[nH]c2c(NS(=O)(=O)c3nc(C(F)(F)F)cs3)ccc(F)c12` [Compound 148] displayed an EC50 of 1310 nM.
In the case of `O=S(=O)(Nc1cc(F)cc2c(Cl)c[nH]c12)c1nc(C(F)(F)F)cs1` [Compound 149] it was 897 nM; in that of `N#Cc1c[nH]c2c(NS(=O)(=O)c3nc(C(F)(F)F)cs3)cc(F)cc12` [Compound 150], 1250 nM.
Take `O=S(=O)(Nc1cccc2c(Cl)c[nH]c12)c1nc(C(F)(F)F)cs1` [Compound 151]: the response was half-maximal at 344 nM (EC50).
In the case of `Cc1nc(S(=O)(=O)Nc2ccc(C)c3c(C#N)c[nH]c23)cs1` [Compound 152] it was 281 nM; in that of `Cc1nc(S(=O)(=O)Nc2cccc3c(C#N)c[nH]c23)cs1` [Compound 153], 940 nM.
The result for `CCc1nc(S(=O)(=O)Nc2cc(F)cc3c(C#N)c[nH]c23)c[nH]1` [Compound 157] reads 1840 nM; that for `CCc1nc(S(=O)(=O)Nc2cccc3c(Cl)c[nH]c23)c[nH]1` [Compound 158], 433 nM; that for `O=S(=O)(Nc1ccc(F)c2c(Cl)c[nH]c12)c1nc(C(F)(F)F)cs1` [Compound 159, N-(3-chloro-4-fluoro-1H-indol-7-yl)-4-(trifluoromethyl)-1,3-thiazole-2-sulfonamide], 450 nM.
The result for `Cc1nc(S(=O)(=O)Nc2cccc3c(C#N)c[nH]c23)sc1C` [Compound 160] reads 674 nM.
In turn, `Cc1ccc(NS(=O)(=O)c2cn(CC(C)C)cn2)c2[nH]cc(C#N)c12` [Compound 161] gave an EC50 of 978 nM.
The result for `CCCn1cnc(S(=O)(=O)Nc2ccc(C)c3c(C#N)c[nH]c23)c1` [Compound 162] reads 591 nM; that for `N#Cc1c[nH]c2c(NS(=O)(=O)c3nc(Cl)cs3)ccc(F)c12` [Compound 163], 893 nM.
`O=S(=O)(Nc1cccc2c(C(F)(F)F)c[nH]c12)c1nccs1` [Compound 185] displayed an EC50 of 1010 nM.
For `O=S(=O)(Nc1cccc2c(C(F)(F)F)c[nH]c12)c1cncs1` [Compound 186], it took 258 nM to reach a half-maximal effect (EC50).
In the case of `O=S(=O)(Nc1ccc(F)c2c(Cl)c[nH]c12)c1cncs1` [Compound 187] it was 228 nM; in that of `Cc1ccc(NS(=O)(=O)c2cncs2)c2[nH]cc(C(F)(F)F)c12` [Compound 198], 47 nM.
In turn, `N#Cc1c[nH]c2c(NS(=O)(=O)c3cncs3)ccc(F)c12` [Compound 199] registered an EC50 of 964 nM.
In the case of `Cc1ncc(S(=O)(=O)Nc2cccc3c(Cl)c[nH]c23)s1` [Compound 200] it was 207 nM; in that of `Cc1ncc(S(=O)(=O)Nc2ccc(F)c3c(C#N)c[nH]c23)s1` [Compound 201], 391 nM.
The compound `CC(C)(O)c1ncc(S(=O)(=O)Nc2cccc3c(C#N)c[nH]c23)s1` [Compound 202] showed an EC50 of 241 nM.
`O=S(=O)(Nc1cccc2c(Cl)c[nH]c12)c1cncs1` [Compound 203]: the EC50 was found to be 583 nM.
The result for `O=S(=O)(Nc1cccc2c(Cl)c[nH]c12)c1cnc(C(F)F)s1` [Compound 204] reads 130 nM; that for `N#Cc1c[nH]c2c(NS(=O)(=O)c3cnc(N4CCOCC4)s3)cccc12` [Compound 205], 632 nM.
Turning to `N#Cc1c[nH]c2c(NS(=O)(=O)c3cnsc3)cccc12` [Compound 215], the EC50 came to 420 nM.
The result for `N#Cc1c[nH]c2c(NS(=O)(=O)c3cnsn3)cccc12` [Compound 254] reads 3920 nM; that for `N#Cc1c[nH]c2c(NS(=O)(=O)c3cnns3)cccc12` [Compound 255], 1160 nM.
